Measurements as given in patent US9474790B2, “Stable, protracted GLP-1/glucagon receptor co-agonists for medical use” (Novo Nordisk A/S, priority 2013, dated 2016).
Numbered stars: 1 amine (or outer) side, 2 acyl side, 3 side chain; on linkers, the order of the positions; unused ones are H or OH. Square brackets hold non-standard residues; d marks the D form. Side chains are listed from the residue outwards. Peptide text beside a SMILES is read from it. * marks the point of attachment. C18 diacid = O=C(O)CCCCCCCCCCCCCCCCC(=O)*; γGlu = O=C(O)[C@H](CCC(=O)[*:2])N[*:1]; Ac4c = NC1(C(=O)O)CCC1; AEEA = NCCOCCOCC(=O)O; Aib = CC(C)(N)C(=O)O

What follows are compounds tested against T1, human GLP-1 receptor (Homo sapiens, UniProt P43220) (assay: GLP-1 receptor binding, 125I-GLP-1 displacement SPA on isolated membranes). Conditions: displacement of 125I-GLP-1 from membranes; read-out: IC50 GLP-1R.
T1 construct: expressed in transfected cells; host or cells: BHK cells (parent BHKTS13), clone FCW467-12A/KZ10-1, with CRE luciferase
In short: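 SPA displacement of 125I-GLP-1(7-36)NH2 from membranes of BHK cells expressing human GLP-1 receptor, with WGA beads, in 50 mM HEPES, 5 mM EGTA, 5 mM MgCl2, 0.005% Tween 20, pH 7.4. Incubated 2 h at 30°C; IC50 by non-linear regression, run at ≤0.001% or 2.0% final serum albumin.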

T1 sequence (P43220 24-463): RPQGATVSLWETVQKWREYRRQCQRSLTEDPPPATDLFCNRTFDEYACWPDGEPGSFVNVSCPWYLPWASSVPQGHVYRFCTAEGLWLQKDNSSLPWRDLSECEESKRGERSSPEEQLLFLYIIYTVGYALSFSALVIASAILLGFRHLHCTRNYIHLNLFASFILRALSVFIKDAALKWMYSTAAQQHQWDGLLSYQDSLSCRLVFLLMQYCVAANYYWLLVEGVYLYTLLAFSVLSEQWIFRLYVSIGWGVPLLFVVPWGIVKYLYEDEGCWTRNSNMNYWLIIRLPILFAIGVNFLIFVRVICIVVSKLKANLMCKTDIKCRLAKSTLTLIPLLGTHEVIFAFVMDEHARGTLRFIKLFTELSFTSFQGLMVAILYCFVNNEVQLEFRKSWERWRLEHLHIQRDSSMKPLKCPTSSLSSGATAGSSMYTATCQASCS

Point of comparison: `CC(C)C[C@H](NC(=O)[C@H](CC(=O)O)NC(=O)[C@H](CC(C)C)NC(=O)[C@H](Cc1ccc(O)cc1)NC(=O)[C@H](CCCCN)NC(=O)[C@H](CO)NC(=O)[C@H](CC(C)C)NC(=O)[C@H](CC(=O)O)NC(=O)[C@H](CO)NC(=O)[C@@H](NC(=O)[C@H](Cc1ccccc1)NC(=O)[C@@H](NC(=O)CNC(=O)[C@H](CCC(N)=O)NC(=O)C(C)(C)NC(=O)[C@@H](N)Cc1c[nH]cn1)[C@@H](C)O)[C@@H](C)O)C(=O)N[C@@H](CCCNC(=N)N)C(=O)N[C@@H](CCCNC(=N)N)C(=O)N[C@@H](C)C(=O)N[C@@H](CCCNC(=N)N)C(=O)N[C@@H](CC(=O)O)C(=O)N[C@@H](Cc1ccccc1)C(=O)N[C@H](C(=O)N[C@@H](CCC(N)=O)C(=O)N[C@@H](Cc1c[nH]c2ccccc12)C(=O)N[C@@H](CC(C)C)C(=O)N[C@@H](CC(C)C)C(=O)N[C@@H](CCCCNC(=O)CNC(=O)[C@H](CO)NC(=O)[C@H](CCC(=O)O)NC(=O)[C@H](CO)NC(=O)CC[C@H](NC(=O)CC[C@H](NC(=O)CCCCCCCCCCCCCCCCC(=O)O)C(=O)O)C(=O)O)C(=O)N[C@H](C(N)=O)[C@@H](C)O)C(C)C` [Example 55, N^ε28-[2-[[(2S)-2-[[(2S)-4-carboxy-2-[[(2S)-2-[[(4S)-4-carboxy-4-[[(4S)-4-carboxy-4-(17-carboxyheptadecanoylamino)butanoyl]amino]butanoyl]amino]-3-hydroxypropanoyl]amino]butanoyl]amino]-3-hydroxypropanoyl]amino]acetyl]-[Aib2,Leu10,Leu16,Arg20,Leu27,Lys28]-Glucagon amide] (H-H[Aib]QGTFTSDLSKYLDLRRARDFVQWLLK([Gly-Ser-Glu-Ser-γGlu-γGlu-C18 diacid])T-NH2; N-terminus assumed), IC50 1.1 nM. Against it:
- CC(C)C[C@H](NC(=O)[C@H](CC(=O)O)NC(=O)[C@H](CC(C)C)NC(=O)[C@H](Cc1ccc(O)cc1)NC(=O)[C@H](CCCCN)NC(=O)[C@H](CO)NC(=O)[C@H](CC(C)C)NC(=O)[C@H](CC(=O)O)NC(=O)[C@H](CO)NC(=O)[C@@H](NC(=O)[C@H](Cc1ccccc1)NC(=O)[C@@H](NC(=O)CNC(=O)[C@H](CCC(N)=O)NC(=O)C1(NC(=O)[C@@H](N)Cc2c[nH]cn2)CCC1)[C@@H](C)O)[C@@H](C)O)C(=O)N[C@@H](CCCNC(=N)N)C(=O)N[C@@H](CCCNC(=N)N)C(=O)N[C@@H](C)C(=O)N[C@@H](CCCNC(=N)N)C(=O)N[C@@H](CCC(=O)O)C(=O)N[C@@H](Cc1ccccc1)C(=O)N[C@H](C(=O)N[C@@H](CCC(N)=O)C(=O)N[C@@H](Cc1c[nH]c2ccccc12)C(=O)N[C@@H](CC(C)C)C(=O)N[C@@H](CC(C)C)C(=O)N[C@@H](CCCCNC(=O)CC[C@H](NC(=O)CC[C@H](NC(=O)COCCOCCNC(=O)COCCOCCNC(=O)CC[C@H](NC(=O)CC[C@H](NC(=O)CCCCCCCCCCCCCCCCC(=O)O)C(=O)O)C(=O)O)C(=O)O)C(=O)O)C(=O)N[C@H](C(N)=O)[C@@H](C)O)C(C)C [Example 49, N^ε28-[(4S)-4-carboxy-4-[[(4S)-4-carboxy-4-[[2-[2-[2-[[2-[2-[2-[[(4S)-4-carboxy-4-[[(4S)-4-carboxy-4-(17-carboxyheptadecanoylamino)butanoyl]amino]butanoyl]amino]ethoxy]ethoxy]acetyl]amino]ethoxy]ethoxy]acetyl]amino]butanoyl]amino]butanoyl]-[Acb2,Leu10,Leu16,Arg20,Glu21,Leu27,Lys28]-Glucagon amide] (H-H[Ac4c]QGTFTSDLSKYLDLRRAREFVQWLLK([γGlu-γGlu-AEEA-AEEA-γGlu-γGlu-C18 diacid])T-NH2; N-terminus assumed) — 2.8-fold lower, 0.4 nM
- CC(C)C[C@H](NC(=O)[C@H](Cc1c[nH]c2ccccc12)NC(=O)[C@H](CCC(N)=O)NC(=O)[C@@H](NC(=O)[C@H](Cc1ccccc1)NC(=O)[C@H](CCC(=O)O)NC(=O)[C@H](CCCNC(=N)N)NC(=O)[C@H](C)NC(=O)[C@H](CCCNC(=N)N)NC(=O)[C@H](CCCNC(=N)N)NC(=O)C(C)(C)NC(=O)[C@H](CC(=O)O)NC(=O)[C@H](CC(C)C)NC(=O)[C@H](Cc1ccc(O)cc1)NC(=O)[C@H](CCCCN)NC(=O)[C@H](CO)NC(=O)[C@H](CC(C)C)NC(=O)[C@H](CC(=O)O)NC(=O)[C@H](CO)NC(=O)[C@@H](NC(=O)[C@H](Cc1ccccc1)NC(=O)[C@@H](NC(=O)CNC(=O)[C@H](CCC(N)=O)NC(=O)C(C)(C)NC(=O)[C@@H](N)Cc1c[nH]cn1)[C@@H](C)O)[C@@H](C)O)C(C)C)C(=O)N[C@@H](CC(C)C)C(=O)N[C@@H](CCCCNC(=O)CC[C@H](NC(=O)CC[C@H](NC(=O)COCCOCCNC(=O)COCCOCCNC(=O)CC[C@H](NC(=O)CCCCCCCCCCCCCCCCC(=O)O)C(=O)O)C(=O)O)C(=O)O)C(=O)N[C@H](C(N)=O)[C@@H](C)O [Example 51, N^ε28-[(4S)-4-carboxy-4-[[(4S)-4-carboxy-4-[[2-[2-[2-[[2-[2-[2-[[(4S)-4-carboxy-4-(17-carboxyheptadecanoylamino)butanoyl]amino]ethoxy]ethoxy]acetyl]amino]ethoxy]ethoxy]acetyl]amino]butanoyl]amino]butanoyl]-[Aib2,Leu10,Aib16,Arg20,Glu21,Leu27,Lys28]-Glucagon amide] (H-H[Aib]QGTFTSDLSKYLD[Aib]RRAREFVQWLLK([γGlu-γGlu-AEEA-AEEA-γGlu-C18 diacid])T-NH2; N-terminus assumed) — 1.6-fold lower, 0.7 nM
- CC(C)C[C@H](NC(=O)[C@H](Cc1ccc(O)cc1)NC(=O)[C@H](CCCCN)NC(=O)[C@H](CO)NC(=O)[C@H](CC(C)C)NC(=O)[C@H](CC(=O)O)NC(=O)[C@H](CO)NC(=O)[C@@H](NC(=O)[C@H](Cc1ccccc1)NC(=O)[C@@H](NC(=O)CNC(=O)[C@H](CCC(N)=O)NC(=O)C(C)(C)NC(=O)[C@@H](N)Cc1c[nH]cn1)[C@@H](C)O)[C@@H](C)O)C(=O)N[C@@H](CCC(=O)O)C(=O)N[C@@H](CO)C(=O)N[C@@H](CCCCN)C(=O)N[C@@H](CCCNC(=N)N)C(=O)N[C@@H](C)C(=O)N[C@@H](CCCNC(=N)N)C(=O)N[C@@H](CCC(=O)O)C(=O)N[C@@H](Cc1ccccc1)C(=O)N[C@H](C(=O)N[C@@H](CCC(N)=O)C(=O)N[C@@H](Cc1c[nH]c2ccccc12)C(=O)N[C@@H](CC(C)C)C(=O)N[C@@H](CC(C)C)C(=O)N[C@@H](CCCCNC(=O)CC[C@H](NC(=O)CC[C@H](NC(=O)[C@H](CO)NC(=O)[C@H](CCC(=O)O)NC(=O)[C@H](CO)NC(=O)CC[C@H](NC(=O)CC[C@H](NC(=O)CCCCCCCCCCCCCCCCC(=O)O)C(=O)O)C(=O)O)C(=O)O)C(=O)O)C(=O)N[C@H](C(N)=O)[C@@H](C)O)C(C)C [Example 52] (H-H[Aib]QGTFTSDLSKYLESKRAREFVQWLLK([γGlu-γGlu-Ser-Glu-Ser-γGlu-γGlu-C18 diacid])T-NH2; N-terminus assumed) — 5.5-fold lower, 0.2 nM
- CC(C)C[C@H](NC(=O)[C@H](Cc1ccc(O)cc1)NC(=O)[C@H](CCCCN)NC(=O)[C@H](CO)NC(=O)[C@H](CC(C)C)NC(=O)[C@H](CC(=O)O)NC(=O)[C@H](CO)NC(=O)[C@@H](NC(=O)[C@H](Cc1ccccc1)NC(=O)[C@@H](NC(=O)CNC(=O)[C@H](CCC(N)=O)NC(=O)C(C)(C)NC(=O)[C@@H](N)Cc1c[nH]cn1)[C@@H](C)O)[C@@H](C)O)C(=O)N[C@@H](CCC(=O)O)C(=O)N[C@@H](CO)C(=O)N[C@@H](CCCCN)C(=O)N[C@@H](CCCNC(=N)N)C(=O)N[C@@H](C)C(=O)N[C@@H](CCCNC(=N)N)C(=O)N[C@@H](CCC(=O)O)C(=O)N[C@@H](Cc1ccccc1)C(=O)N[C@H](C(=O)N[C@@H](CCC(N)=O)C(=O)N[C@@H](Cc1c[nH]c2ccccc12)C(=O)N[C@@H](CC(C)C)C(=O)N[C@@H](CC(C)C)C(=O)N[C@@H](CCCCNC(=O)CC[C@H](NC(=O)CC[C@H](NC(=O)[C@H](CO)NC(=O)[C@H](CCC(=O)O)NC(=O)[C@H](CO)NC(=O)CC[C@H](NC(=O)CC[C@H](NC(=O)CCCCCCCCCCCCCCCCC(=O)O)C(=O)O)C(=O)O)C(=O)O)C(=O)O)C(=O)N[C@H](C(N)=O)[C@@H](C)O)C(C)C [Example 54, N^ε28-[(4S)-4-carboxy-4-[[(4S)-4-carboxy-4-[[(2S)-2-[[(2S)-4-carboxy-2-[[(2S)-2-[[(4S)-4-carboxy-4-[[(4S)-4-carboxy-4-(17-carboxyheptadecanoylamino)butanoyl]amino]butanoyl]amino]-3-hydroxypropanoyl]amino]butanoyl]amino]-3-hydroxypropanoyl]amino]butanoyl]amino]butanoyl]-[Aib2,Leu10,Glu15,Lys17,Arg20,Glu21,Leu27,Lys28]-Glucagon amide] (H-H[Aib]QGTFTSDLSKYLESKRAREFVQWLLK([γGlu-γGlu-Ser-Glu-Ser-γGlu-γGlu-C18 diacid])T-NH2; N-terminus assumed) — 5.5-fold lower, 0.2 nM
- CC(C)C[C@H](NC(=O)[C@H](Cc1ccc(O)cc1)NC(=O)[C@H](CCCCN)NC(=O)[C@H](CO)NC(=O)[C@H](CC(C)C)NC(=O)[C@H](CC(=O)O)NC(=O)[C@H](CO)NC(=O)[C@@H](NC(=O)[C@H](Cc1ccccc1)NC(=O)[C@@H](NC(=O)CNC(=O)[C@H](CCC(N)=O)NC(=O)C(C)(C)NC(=O)[C@@H](N)Cc1c[nH]cn1)[C@@H](C)O)[C@@H](C)O)C(=O)N[C@@H](CC(=O)O)C(=O)N[C@@H](CO)C(=O)N[C@@H](CCCNC(=N)N)C(=O)N[C@@H](CCCNC(=N)N)C(=O)N[C@@H](C)C(=O)N[C@@H](CCCNC(=N)N)C(=O)N[C@@H](CCC(=O)O)C(=O)N[C@@H](Cc1ccccc1)C(=O)N[C@H](C(=O)N[C@@H](CCC(N)=O)C(=O)N[C@@H](Cc1c[nH]c2ccccc12)C(=O)N[C@@H](CC(C)C)C(=O)N[C@@H](CC(C)C)C(=O)N[C@@H](CCCCNC(=O)CC[C@H](NC(=O)CC[C@H](NC(=O)COCCOCCNC(=O)COCCOCCNC(=O)CC[C@H](NC(=O)CCCCCCCCCCCCCCCCC(=O)O)C(=O)O)C(=O)O)C(=O)O)C(=O)N[C@H](C(N)=O)[C@@H](C)O)C(C)C [Example 56, N^ε28-[(4S)-4-carboxy-4-[[(4S)-4-carboxy-4-[[2-[2-[2-[[2-[2-[2-[[(4S)-4-carboxy-4-(17-carboxyheptadecanoylamino)butanoyl]amino]ethoxy]ethoxy]acetyl]amino]ethoxy]ethoxy]acetyl]amino]butanoyl]amino]butanoyl]-[Aib2,Leu10,Arg20,Glu21,Leu27,Lys28]-Glucagon amide] (H-H[Aib]QGTFTSDLSKYLDSRRAREFVQWLLK([γGlu-γGlu-AEEA-AEEA-γGlu-C18 diacid])T-NH2) — 3.7-fold lower, 0.3 nM
